Reference: patent US9642835B2, “Modulators of GTPase and use in relevant treatment” (STC.UNM, priority 2010, dated 2017)

Columns and labels:
[1] = test system: Cdc42, Rab2, Rab7, activated Rac1Q61L, Rac1, and H-Ras; assay: Multiplexed primary screen, fluorescent GTP binding; conditions: 10 μM compound
Protocol: Multiplex screening was performed by measuring GTP-binding activities of six GTPases (Cdc42, Rab2, Rab7, activated Rac1Q61L, Rac1, and H-Ras) simultaneously using special glutathione (GSH) bead sets having varied fluorescence intensities at a fixed wavelength^38. Individual GST-GTPase chimeras were tested against approximately 200,000 small molecules from the Molecular Libraries Small Molecule Repository (MLSMR). Results of fluorescent GTP-binding from the entire primary screen are summarized in the open access Pubchem database as required for projects conducted under the Roadmap Initiative (AID 757-761, 764). […] In total 1877 compounds/194,635 were identified as activators or inhibitors in the primary screen. On the order of 100-500 compounds were found active per GTPase target, enabling an unprecedented, comprehensive evaluation of small molecules active against various Ras-related GTPase family members. Here we report one compound active specifically on Cdc42 and structure activity relationships determined through chemical synthesis.
Multiplex analysis of small GTPases, were performed as we have described previously {Surviladze, 2009}. […] Flow cytometric light scatter and fluorescence emission at 530+/−20 nm (FL1) and 665+/−10 nm (FL8) were collected on a Cyan ADP flow cytometer (Beckman Coulter, Fullerton, Calif.). The resulting time-dependent data (one file per plate) were analyzed using IDLQuery software to determine the compound activity in each well. […] Gating based on FL8 emission distinguishes the beads coated with different proteins, and the median fluorescence per bead population was calculated. […]
For detection of GTP binding to small G-proteins we used bead-based multiplex flow cytometry assay {Surviladze, 2009}. […] Six individual GST-GTPases representative of Rho, Ras and Rab branches of the Ras-related GTPase family (Cdc42 wt, Rac1 wt, Rac1Q61L, Rab2 wt, Rab7 wt, and H-Ras wt) were first bound to GSH-beads of a particular fluorescence intensity. […]

Cdc42 in Swiss 3T3 cells = assay: EGF induced Cdc42 membrane localization; assay type: cell-based; conditions: 1 μM
Protocol: Subconfluent cells were starved overnight in DMEM without serum and incubated with 1 or 10 μM inhibitor for 1 h. As a positive control, cells were stimulated with 100 ng/ml bradykinin for 30 min, or 100 ng/ml EGF as previously described {Kozma, 1995 #24}. Cells were washed with phosphate buffered saline, fixed with 3% paraformaldehyde, permeabilized for 5 min with 0.1% Triton X-100 in Tyrode's buffer, blocked for 1 h with 1% BSA in Tyrode's buffer, and stained for 1 h with rhodamine-phalloidin or Cdc42 mAb (Cytoskeleton Inc., Denver, Colo.) for 1 h followed by Cy3-conjugated goat-anti-mouse antibody (Jackson Immunoresearch Laboratories) for 1 h, at RT.

[2] = target: His-Cdc42 binding to GST-PAK-PBD (Homo sapiens, UniProt P60953); assay: In vitro Cdc42-GTPγS formation PAK-PBD pull-down; assay type: biochemical; conditions: 10 μM inhibitor
His-Cdc42 binding to GST-PAK-PBD, sequence (P60953 whole entry): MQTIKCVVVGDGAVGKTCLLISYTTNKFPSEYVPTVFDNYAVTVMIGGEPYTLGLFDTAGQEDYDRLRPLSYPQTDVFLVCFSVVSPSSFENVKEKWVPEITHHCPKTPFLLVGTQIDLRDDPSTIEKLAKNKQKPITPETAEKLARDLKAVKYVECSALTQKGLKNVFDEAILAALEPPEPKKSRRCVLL
Protocol: For analysis of the effect of MLS000693334 on the formation of the GTP-bound form of Cdc42 in vitro, 40 nM His-Cdc42 wt incubated (20 min at 30 C) with various concentration of GTPγS in the presence of 1 mM EDTA containing NP-HPS buffer. Reaction stopped by adding of excess amount of MgCl2. Mixture incubated with 15 μl PAK-PBD/beads (Cytoskeleton Inc., Denver, Colo.) for 1 h. Washed 2× and active Cdc42 analyzed by Western blot using mAb for Cdc42 (Cytoskeleton Inc., Denver, Colo.) and Mouse TrueBlot Ultra: Horseradish Peroxidase anti-mouse IgG (eBioscience. San Diego, Calif.) followed by ECL (Thermo Scientific, Rockford, Ill.).
For in vitro Cdc42 activation measurements, DMSO or an equal volume of SID57578341 in DMSO were incubated for 20 min at 30° C. with 40 nM His-Cdc42 protein and varying concentrations of GTPγS in 1 mM EDTA-containing buffer (NP-HPS). Further nucleotide exchange was inhibited with the addition of excess MgCl2 (60 mM final) and transfer to ice. Activated Cdc42 protein was isolated from solution by adding 15 μl GST-PAK-PBD bound glutathione beads and rotation at 4° C. for 1 h. Activated Cdc42 bound to GST-PAK-PDB was resolved by SDS-PAGE (12% gels) and analyzed by immunoblot using mAb directed against Cdc42 (Cytoskeleton, Inc.) and ECL (Thermo Scientific, Rockford, Ill.). Quantification was by densitometry.

SMILES: COc1ccc(C2CC(c3ccccc3)=NN2c2ccc(S(N)(=O)=O)cc2)cc1 (stereo not drawn) [MLS000693334, 4-[3-(4-methoxyphenyl)-5-phenyl-3,4-dihydropyrazol-2-yl]benzenesulfonamide]
- Outcome of primary screening [1]: specific inhibitors
- EGF induced localization of Cdc42 on the membrane (Cdc42 in Swiss 3T3 cells): reduced membrane localization
- Complex formation of active Cdc42(GTPγS) with PAK-PBD [2]: dramatically reduced
